Structures can show the parent of a compound that is named as a salt.
Legend:
[1] = Stability of solid state form (polymorphic stability by P-XRD on storage); assay type: physicochemical; settings: stored 3 months in self-sealing LDPE bag, normal atmospheric conditions, room temperature
Experimental: The X-Ray powder diffraction was measured by an X-ray powder Diffractometer equipped with CuKα-radiations (40 kV, 40 mA) in wide-angle X-ray Diffractometer of BRUKER axs, D8 ADVANCE. The sample was analyzed using the following instrument parameters: measuring range 3-45° 2-theta; step width=0.01579°; and measuring time per step=0.11 sec. Fesoterodine mandelate was prepared according to the process exemplified in Example 1 and was packed in a self-sealing low-density polyethylene (LDPE) bag. The material was stored for 3 months under normal atmospheric conditions at room temperature and checked for polymorphic stability.

[2] = Moisture absorption during filtration of the salt; assay type: physicochemical

polymorphic stability (maintenance of the original P-XRD pattern) [1]	moisture absorption [2]	Compound
retain its polymorphic form	does not absorb moisture	CC(C)C(=O)Oc1ccc(CO)cc1[C@H](CCN(C(C)C)C(C)C)c1ccccc1.O=C(O)C(O)c1ccccc1 [Fesoterodine mandelate, mandelate salt of 2-[(1R)-3-[bis(1-methylethyl)amino]-1-phenylpropyl]-4-hydroxymethylphenyl isobutyrate]
–	absorbs moisture	CC(C)C(=O)Oc1ccc(CO)cc1[C@H](CCN(C(C)C)C(C)C)c1ccccc1 [fumarate salt, fesoterodine fumarate, reference compound]

Reference: patent publication US20110086103A1, “NOVEL MANDELATE SALT OF FESOTERODINE” (ACTAVIS GROUP PTC EHF, priority 2008, published 2011)
